“Also recorded” adds a separate entry of the source.

The target of series [1] is T1, Aβ1-42 (Homo sapiens, UniProt P05067).
T1 construct: pre-treated Aβ1-42 samples (Bachem AG, Switzerland); purchased Bachem AG, Switzerland
The experiment in a line: Inhibition of Aβ1-42 self-aggregation (ThT fluorescence). The series is classed as biochemical. As to conditions: [Inhibitor]=[Aβ1-42]=50 µM, mean ± SEM. On the procedure:
Experiments were performed by incubating the peptide in 10 mM phosphate buffer (pH=8.0) containing 10 mM NaCl, at 30 °C for 24 h (final Aβ concentration=50 µM with and without inhibitor (50 µM). The inhibitor was dissolved in methanol and diluted in the assay buffer. Blanks containing inhibitor and ThT were also prepared and evaluated to account for quenching and fluorescence properties. To quantify amyloid fibril formation, the ThT fluorescence method was used^36, 37. After incubation, samples were diluted to a final volume of 2.0 mL with […] glycine-NaOH buffer (pH= 8.5) containing 1.5 µM ThT. A 300-seconds-time scan of fluorescence intensity was carried out (λexc=446 nm; λem=490 nm), and values at plateau were averaged after subtracting the background fluorescence of 1.5 µM ThT solution. The fluorescence intensities were compared and the % inhibition was calculated.
The inhibitory activity of compounds BIGI-3e, BIGI-3h and BIGI-3k against the spontaneous aggregation of Aβ1-42 was determined in vitro using a thioflavin T (ThT)-based fluorometric assay^35. […].

Series [2] has as its target T2, human recombinant butyrylcholinesterase (hBuChE; EC 3.1.1.8) (Homo sapiens, UniProt P06276).
T2 construct: purchased Sigma-Aldrich (Prague, Czech Republic)
The experiment in a line: Cholinesterase inhibition in vitro assay (modified Ellman's method), BuChE. It is filed as biochemical. The settings on record: pH 7.4, 37 °C, mean ± SEM, read-out: BChE (IC50 µM). On the procedure: The AChE and BuChE inhibitory activity of the tested compounds was determined using a modified Ellman's method^31, 32.Human red-blood cell acetylcholinesterase (hAChE; EC 3.1.1.7), and human recombinant butyrylcholinesterase (hBuChE; EC 3.1.1.8), 5,5'-dithiobis(2-nitrobenzoic acid) (Ellman's reagent, DTNB), phosphate buffer (PB, pH 7.4), acetylthiocholine (ATC), and butyrylthiocholine (BTC), were purchased from Sigma-Aldrich (Prague, Czech Republic). Nunc polystyrene 96-well microplates with flat-bottom shape (ThermoFisher Scientific, USA) were used for the measurement and all the assay were carried out in 0.1 M KH2PO4/K2HPO4 buffer, pH 7.4. Enzyme solution was prepared at activity 2.0 units/mL in 2 mL aliquots. The assay mixture (100 µL) consisted of 40 µL of 0.1 M phosphate buffer (pH 7.4), 20 µL of 0.01 M DTNB, 10 µL of enzyme, and 20 µL of 0.01 M substrate (ATC iodide solution). Tested compounds were dissolved first in methanol (BIGI 23 in DMSO) and then further diluted by assay buffer to the final concentration. […]. […] Enzyme with the inhibitor was preincubated for 5 min in the assay mixture and then the reaction was started by addition of 20 µL of substrate (ATC for AChE, BTC for BuChE). The enzyme activity was determined by measuring the increase in absorbance at 412 nm at 37 °C at 2 min intervals using a Multi-mode microplate reader Synergy 2 (Vermont, USA). Each concentration was assayed in triplicate. The obtained data were used to compute the percentage inhibition (I; Equation 1): I = 1−(ΔAi)/(ΔA0) [%] [formula] ΔAi indicates the absorbance change provided by cholinesterase exposed to AChE inhibitors and ΔA0 indicates absorbance change caused by intact cholinesterase (phosphate buffer was used instead of AChE inhibitor solution). […] Calculations were performed using software Microsoft Excel (Redmont, WA, USA) and GraphPad Prism version 5.02 for Windows, GraphPad Software, San Diego, CA, USA.
For orientation: Ellman's reagent forms a yellow product with free thiols.

Series [3] can be described thus: Oxygen Radical Absorbance Capacity (ORAC-FL) assay. As to conditions: Trolox equivalents (µmol of Trolox equivalent/µmol of compound). As for the experimental part:
The radical scavenging capacity of the TFAHs was determined by the ORAC-FL method using fluorescein as a fluorescent probe^33,34. (±)-6-Hydroxy-2,5,7,8-tetramethylchromane-2-carboxylic acid (Trolox), fluorescein (FL) and 2,2'-azobis(amidinopropane) dihydrochloride (AAPH) were purchased from Sigma-Aldrich. A Varioskan Flash plate reader with built-in injectors (Thermo Scientific) was used. The reaction was carried out at 37 °C in 75 mM phosphate buffer (pH= 7.4), and the final volume reaction mixture was 200 µL. The tested compounds and Trolox standard were dissolved in DMSO to 10 mM and further diluted in 75 mM phosphate buffer (pH= 7.4). The final concentrations were 0.1-1 µM for the tested compounds and 1-8 µM for Trolox standard. The blank was composed of 120 µL of FL, 60 µL of AAPH and 20 µL of phosphate buffer (pH=7.4) and was added in each assay.
The net AUC corresponding to a sample was calculated as follows: Net AUC = AUCantioxidant −AUCblank . [formula]
Regression equations were calculated by plotting the net AUC against the antioxidant concentration. The ORAC value was obtained by dividing the slope of the latter curve between the slope of the Trolox curve obtained in the same assay. Final ORAC values were expressed as µmol of Trolox equivalent/µmol of TFAH.

The nature of series [4]: Prediction of blood-brain barrier penetration (PAMPA). The series is classed as in vitro ADME. As to conditions: for CNS: PAMPA prediction of ability to cross the blood-brain barrier. On the procedure: To predict passive blood-brain penetration of novel compounds modification of the parallel artificial membrane permeation (PAMPA) assay has been used based on reported protocol^38, 39. The filter membrane of the donor plate was coated with PBL (Polar Brain Lipid, Avanti, USA) in dodecane (4 µl of 20 mg/ml PBL in dodecane) and the acceptor well was filled with 300 µl of PBS pH 7.4 buffer (VD). Tested compounds were dissolved first in DMSO (0.5% (V/V) final) and that diluted with PBS pH 7.4 to reach the final concentration 50 µM in the donor well. 300 µl of the donor solution was added to the donor wells (VA) and the donor filter plate was carefully put on the acceptor plate so that coated membrane was "in touch" with both donor solution and acceptor buffer. Test compound diffused from the donor well through the lipid membrane (Area=0.28cm^2) to the acceptor well. The concentration of the drug in both donor and the acceptor wells was assessed after 3, 4, 5 and 6 hours of incubation in quadruplicate using the UV plate reader Synergy HT (Biotek, USA) at the maximum absorption wavelength and the standard curve for each compound. […]

T1 sequence (P05067 672-713 limits assumed): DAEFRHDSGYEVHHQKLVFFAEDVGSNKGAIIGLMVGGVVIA
T2 sequence (P06276 29-602): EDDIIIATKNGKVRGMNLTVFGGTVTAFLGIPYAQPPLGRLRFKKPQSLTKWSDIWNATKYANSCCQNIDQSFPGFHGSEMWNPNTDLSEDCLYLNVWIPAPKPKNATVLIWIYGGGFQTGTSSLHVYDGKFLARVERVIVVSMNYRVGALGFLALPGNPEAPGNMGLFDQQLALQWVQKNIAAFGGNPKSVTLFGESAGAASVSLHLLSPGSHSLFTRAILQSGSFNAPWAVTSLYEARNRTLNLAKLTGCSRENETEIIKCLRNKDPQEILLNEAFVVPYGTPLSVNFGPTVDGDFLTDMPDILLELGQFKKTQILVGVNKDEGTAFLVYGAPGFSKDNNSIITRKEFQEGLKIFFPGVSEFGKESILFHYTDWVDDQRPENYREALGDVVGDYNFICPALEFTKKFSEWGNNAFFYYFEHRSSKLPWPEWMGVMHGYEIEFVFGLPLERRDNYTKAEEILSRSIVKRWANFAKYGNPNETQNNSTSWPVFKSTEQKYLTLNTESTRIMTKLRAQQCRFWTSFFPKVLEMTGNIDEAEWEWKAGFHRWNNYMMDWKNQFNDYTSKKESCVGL

`CCOC(=O)C1=C(C)N(CCC2CCN(Cc3ccccc3)CC2)C(=O)NC1c1coc2c(Cl)cc(Cl)cc2c1=O` (racemic) [BIGI-3h, ethyl 1-(2-(1-benzylpiperidin-4-yl)ethyl)-4-(6,8-dichloro-4-oxo-4H-chromen-3-yl)-6-methyl-2-oxo-1,2,3,4-tetrahydropyrimidine-5-carboxylate]: the inhibition (usually the drop in the measured response relative to a control, in per cent) at 50 µM in series [1] was determined as 66 ± 0.7%. Further, the “% inhibition Aβ1-42 aggregation” value in series [1] (50 µM) was 63.6 ± 1.3%. In addition, in series [2], the concentration for half-maximal inhibition (IC50) – broadly, the concentration at which inhibition is half-maximal – was 17.3 ± 0.9 µM. Besides, the ORAC in series [3] worked out at 3.65± 0.07 TE. Also, the CNS entry in series [4] is given as “best ability to cross the BBB; also recorded: CNS (+)”. For the same compound, in series [4] (PAMPA, PBS pH 7.4, 50 µM in donor well, read-out: Pe ± SEM), the Papp at 50 µM is 4 ± 0.3 ×10⁻⁶ cm/s.
In the case of `CCOC(=O)C1=C(C)N(CCC2CCN(Cc3ccccc3)CC2)C(=O)NC1c1coc2ccc(Br)cc2c1=O` (centres unmarked) [BIGI-3e, ethyl 1-(2-(1-benzylpiperidin-4-yl)ethyl)-4-(6-bromo-4-oxo-4H-chromen-3-yl)-6-methyl-2-oxo-1,2,3,4-tetrahydropyrimidine-5-carboxylate], the inhibition at 50 µM in series [1] amounted to 63 ± 2.1%. The IC50 in series [2] amounted to 8.4 ± 0.34 µM. The ORAC in series [3] was 3.26 ± 0.12 TE. Also, the CNS entry in series [4] is recorded as “CNS (+/-)”.
The corresponding values for `CCOC(=O)C1=C(C)N(CCCC2CCN(Cc3ccccc3)CC2)C(=O)NC1c1coc2cc(CC)ccc2c1=O` (centres unmarked) [BIGI-3k, ethyl 1-(3-(1-benzylpiperidin-4-yl)propyl)-4-(7-ethyl-4-oxo-4H-chromen-3-yl)-6-methyl-2-oxo-1,2,3,4-tetrahydropyrimidine-5-carboxylate] are 63.8 ± 0.8%, 2.95 µM, 2.75 ± 0.16 TE and “CNS (-)”.

Source of the values: EP4168403B1 (priority 2020, dated 2021).
